The record followed here is patent US10626125B2, “1,1,1-trifluoro-3-hydroxypropan-2-yl carbamate derivatives as MAGL inhibitors” (PFIZER INC., priority 2017, dated 2020).

Read-outs that look alike come from different tables or passages of the source.

Usually IC50 stands for the point on the concentration scale where inhibition reaches its midpoint.

In assay [1] the target is T1, human recombinant Monoacylglycerol Lipase (Homo sapiens, UniProt Q99685).
T1 sequence (Q99685 1-303): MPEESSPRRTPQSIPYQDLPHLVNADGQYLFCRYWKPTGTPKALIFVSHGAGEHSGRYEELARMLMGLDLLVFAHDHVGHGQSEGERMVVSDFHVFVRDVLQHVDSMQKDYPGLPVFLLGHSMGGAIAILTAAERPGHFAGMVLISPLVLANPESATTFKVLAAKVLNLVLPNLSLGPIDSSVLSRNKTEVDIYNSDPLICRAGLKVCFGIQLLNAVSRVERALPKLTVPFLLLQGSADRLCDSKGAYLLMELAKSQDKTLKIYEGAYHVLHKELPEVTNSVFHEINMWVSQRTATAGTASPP
Description: MAGL inactivation (kinact/KI from enzyme progress curves, T=0 min protocol). The settings on record: from plot of Kobs vs. compound concentration, geometric mean of 2-5 determinations (b: ≥6).

In assay [2] the target is T1, human recombinant Monoacylglycerol Lipase. Description: MAGL enzymatic assay (IC50; 7-HCA substrate added at T=0 min or T=30 min). It counts as biochemical. The settings on record: geometric mean of 2-5 determinations unless otherwise indicated.
Setting [3] is: MAGL (T = 30 min) IC50, substrate 7-HCA added after 30 minute incubation (T=30 min).
[4] abbreviates: substrate 7-HCA added immediately (T=0 min), read-out: MAGL (T = 0 min) IC50.

Take `O=C(O[C@H](CO)C(F)(F)F)N1CCC2(CC1)CC(c1cc(C(F)F)ccn1)CO2` (single isomer, unassigned) [Example 35]: the “MAGL kinact/KI” value in assay [1] is 23000 1/s per M. For the same compound, the 50% inhibitory concentration (IC50) in assay [2] (setting [3]) is 3 nM; in assay [2] (setting [4]) it was 31 nM.
As for `O=C(O[C@H](CO)C(F)(F)F)N1CCC2(CC1)CC(c1ccc(C(F)F)nc1)CO2` (single isomer, unassigned) [Example 36], the “MAGL kinact/KI” value in assay [1] was 1440 1/s per M. In addition, the IC50 in assay [2] (setting [3]) stood at 27 nM; in assay [2] (setting [4]), 239 nM.
The like results for `O=C(O[C@H](CO)C(F)(F)F)N1CCC2(CC1)CC(c1ccc(C(F)F)nc1)CO2` (single isomer, unassigned) [Example 37] were, in that order, 3840 1/s per M, 8 nM and 57 nM.
Consider `N#Cc1ccc(C2COC3(CCN(C(=O)O[C@H](CO)C(F)(F)F)CC3)C2)nc1` (single isomer, unassigned) [Example 38], for which, in assay [1], the “MAGL kinact/KI” value is 1610 1/s per M. Moreover, the IC50 was found to be 24 nM in assay [2] (setting [3]) and 200 nM in assay [2] (setting [4]).
As to `O=C(O[C@H](CO)C(F)(F)F)N1CCC2(CC1)CC(c1ccc(C(F)F)cn1)CO2` (single isomer, unassigned) [Example 39], the “MAGL kinact/KI” value in assay [1] is given as 5180 1/s per M. The 50% inhibitory concentration (IC50) in assay [2] (setting [3]) came to 5 nM; in assay [2] (setting [4]), 43 nM.
The like results for `O=C(O[C@H](CO)C(F)(F)F)N1CCC2(CC1)CC(c1ccc(C(F)(F)F)cn1)CO2` (single isomer, unassigned) [Example 40] were, in that order, 21800 1/s per M, 3 nM and 9 nM.
In the case of `O=C(O[C@H](CO)C(F)(F)F)N1CCC2(CC1)CC(c1ccccn1)CO2` (single isomer, unassigned) [Example 41], the “MAGL kinact/KI” value in assay [1] is on record as 13200 1/s per M. Further, the IC50 in assay [2] (setting [3]) was determined as 7 nM; in assay [2] (setting [4]), 76 nM.
Taken in the same sequence, the figures for `CC(C)(C)c1ccn(C2COC3(CCN(C(=O)O[C@H](CO)C(F)(F)F)CC3)C2)n1` (single isomer, unassigned) [Example 52] were 200000 1/s per M, 1 nM and 4 nM.
For the compound `O=C(O[C@H](CO)C(F)(F)F)N1CCC2(CC1)CC(n1ccc(C(F)(F)F)n1)CO2` (single isomer, unassigned) [Example 53], in assay [1], the “MAGL kinact/KI” value was 66900 1/s per M. For the same compound, the concentration for half-maximal inhibition (IC50) amounted to 1 nM in assay [2] (setting [3]) and 9 nM in assay [2] (setting [4]).
As for `Cc1cn(C2COC3(CCN(C(=O)O[C@H](CO)C(F)(F)F)CC3)C2)nc1C` (single isomer, unassigned) [Example 54], the “MAGL kinact/KI” value in assay [1] was 26500 1/s per M. Also, the concentration for half-maximal inhibition (IC50) is 4 nM in assay [2] (setting [3]) and 21 nM in assay [2] (setting [4]).
With `O=C(O[C@H](CO)C(F)(F)F)N1CCC2(CC1)CC(n1ncc3ccccc31)CO2` (single isomer, unassigned) [Example 62], the “MAGL kinact/KI” value in assay [1] is reported as 18100 1/s per M. Also, the figures for the half-maximal inhibitory concentration (IC50) in assay [2] (setting [3]) and in assay [2] (setting [4]) were 1 nM and 10 nM, respectively.
As for `O=C(O[C@H](CO)C(F)(F)F)N1CCC2(CCC(n3cc(C(F)(F)F)cn3)CO2)CC1` (single isomer, unassigned) [Example 69], the “MAGL kinact/KI” value in assay [1] is 71900 1/s per M. Further, the half-inhibitory concentration (IC50) in assay [2] (setting [3]) was found to be 1 nM; in assay [2] (setting [4]), 10 nM.
As to `O=C(O[C@H](CO)C(F)(F)F)N1CCC2(CCC(n3cc(F)cn3)CO2)CC1` (single isomer, unassigned) [Example 70], the “MAGL kinact/KI” value in assay [1] is recorded as 40400 1/s per M. Further, the half-inhibitory concentration (IC50) in assay [2] (setting [3]) worked out at 2 nM; in assay [2] (setting [4]) it was 22 nM.
As for `N#Cc1cccc(C2COC3(CCN(C(=O)O[C@H](CO)C(F)(F)F)CC3)C2)c1F` (single isomer, unassigned) [Example 71], in assay [1], the “MAGL kinact/KI” value is on record as 17800 1/s per M. The IC50 worked out at 3 nM in assay [2] (setting [3]) and 29 nM in assay [2] (setting [4]).
Taken in the same sequence, the figures for `N#Cc1ccc(C2COC3(CCN(C(=O)O[C@H](CO)C(F)(F)F)CC3)C2)c(F)c1` (single isomer, unassigned) [Example 72] were 17000 1/s per M, 4 nM and 32 nM.
The like results for `N#Cc1cccc(C2CCOC3(CCN(C(=O)O[C@H](CO)C(F)(F)F)CC3)C2)c1` (single isomer, unassigned) [Example 73] were, in that order, 8870 1/s per M, 3 nM and 26 nM.
On to `O=C(O[C@H](CO)C(F)(F)F)N1CCC2(CCC(c3ccc(F)cn3)CO2)CC1` (single isomer, unassigned) [Example 74], for which the “MAGL kinact/KI” value in assay [1] is 7140 1/s per M. Besides, the half-inhibitory concentration (IC50) in assay [2] (setting [3]) came to 6 nM; in assay [2] (setting [4]), 69 nM.
Turning to `O=C(O[C@H](CO)C(F)(F)F)N1CCC2(CCC(n3cc(C(F)F)cn3)CO2)CC1` (single isomer, unassigned) [Example 75], the “MAGL kinact/KI” value in assay [1] is 7370 1/s per M. Also, the values for the half-inhibitory concentration (IC50) in assay [2] (setting [3]) and in assay [2] (setting [4]) were 12 nM and 115 nM, respectively.
Taken in the same sequence, the figures for `O=C(O[C@H](CO)C(F)(F)F)N1CCC2(CC1)CC(n1cc(C(F)(F)F)cn1)C2` [Example 1, (2R)-1,1,1-Trifluoro-3-hydroxypropan-2-yl 2-[4-(trifluoromethyl)-1H-pyrazol-1-yl]-7-azaspiro[3.5]nonane-7-carboxylate] were 22200 1/s per M, 2 nM and 12 nM.
With `O=C(O[C@H](CO)C(F)(F)F)N1CCC2(CC1)CC(c1ccc(F)cn1)C2` [Example 2, (2R)-1,1,1-Trifluoro-3-hydroxypropan-2-yl 2-(5-fluoropyridin-2-yl)-7-azaspiro[3.5]nonane-7-carboxylate], the “MAGL kinact/KI” value in assay [1] is reported as 33800 1/s per M. Also, the 50% inhibitory concentration (IC50) in assay [2] (setting [3]) was 2 nM; in assay [2] (setting [4]), 21 nM.
As to `CN(C(=O)C1CCCC1)[C@H]1COC2(CCN(C(=O)O[C@H](CO)C(F)(F)F)CC2)C1` [Example 5, (2R)-1,1,1-Trifluoro-3-hydroxypropan-2-yl (3R)-3-[(cyclopentylcarbonyl)(methyl)amino]-1-oxa-8-azaspiro[4.5]decane-8-carboxylate], in assay [1], the “MAGL kinact/KI” value is reported as 5530 1/s per M. For the same compound, the concentration for half-maximal inhibition (IC50) in assay [2] (setting [3]) is 7 nM; in assay [2] (setting [4]), 67 nM.
Regarding `CN([C@H]1COC2(CCN(C(=O)O[C@H](CO)C(F)(F)F)CC2)C1)S(=O)(=O)C(C)(C)C` [Example 6, (2R)-1,1,1-Trifluoro-3-hydroxypropan-2-yl (3R)-3-[(tert-butylsulfonyl)(methyl)amino]-1-oxa-8-azaspiro[4.5]decane-8-carboxylate], in assay [1], the “MAGL kinact/KI” value is listed as 6630^b 1/s per M. The 50% inhibitory concentration (IC50) in assay [2] (setting [3]) came out at 8 nM; in assay [2] (setting [4]) it was 98 nM.
The like results for `CN(C1CC2(CCN(C(=O)O[C@H](CO)C(F)(F)F)CC2)C1)S(=O)(=O)CC1CC1` [Example 18, (2R)-1,1,1-Trifluoro-3-hydroxypropan-2-yl 2-{[(cyclopropylmethyl)sulfonyl](methyl)amino}-7-azaspiro[3.5]nonane-7-carboxylate] were, in that order, 14900 1/s per M, 4 nM and 52 nM.
`N#Cc1ccc([C@H]2COC3(CCN(C(=O)O[C@H](CO)C(F)(F)F)CC3)C2)cc1F` [Example 27, (2R)-1,1,1-trifluoro-3-hydroxypropan-2-yl (3S)-3-(4-cyano-3-fluorophenyl)-1-oxa-8-azaspiro[4.5]decane-8-carboxylate]: the “MAGL kinact/KI” value in assay [1] is listed as 22800 1/s per M. The IC50 in assay [2] (setting [3]) amounted to 3 nM; in assay [2] (setting [4]), 17 nM.
Taken in the same sequence, the figures for `CN(C(=O)C(C)(C)C)C1CC2(CCN(C(=O)O[C@H](CO)C(F)(F)F)CC2)C1` [Example 42, (2R)-1,1,1-trifluoro-3-hydroxypropan-2-yl 2-[(2,2-dimethylpropanoyl)(methyl)amino]-7-azaspiro[3.5]nonane-7-carboxylate] were 309000 1/s per M, 0.4 nM and 4 nM.
Taken in the same sequence, the figures for `CN(C(=O)CC1CC1)C1CC2(CCN(C(=O)O[C@H](CO)C(F)(F)F)CC2)C1` [Example 43, (2R)-1,1,1-trifluoro-3-hydroxypropan-2-yl 2-[(cyclopropylacetyl)(methyl)amino]-7-azaspiro[3.5]nonane-7-carboxylate] were 18500 1/s per M, 2 nM and 29 nM.
The like results for `CN(C(=O)Cc1ccccc1)C1CC2(CCN(C(=O)O[C@H](CO)C(F)(F)F)CC2)C1` [Example 44, (2R)-1,1,1-trifluoro-3-hydroxypropan-2-yl 2-[methyl(phenylacetyl)amino]-7-azaspiro[3.5]nonane-7-carboxylate] were, in that order, 13800 1/s per M, 4 nM and 40 nM.
For the compound `CN(C1CC2(CCN(C(=O)O[C@H](CO)C(F)(F)F)CC2)C1)S(=O)(=O)c1ccccc1` [Example 45, (2R)-1,1,1-trifluoro-3-hydroxypropan-2-yl 2-[methyl(phenylsulfonyl)amino]-7-azaspiro[3.5]nonane-7-carboxylate], the “MAGL kinact/KI” value in assay [1] was 63200 1/s per M. For the same compound, the half-inhibitory concentration (IC50) in assay [2] (setting [3]) was found to be 1 nM; in assay [2] (setting [4]), 9 nM.
